Data taken from patent US5492906A, “Derivatives of thieno-triazolo-diazepine and therapeutic compositions containing them” (Societe de Conseils de Recherches et d'Applications …, priority 1989, dated 1996).

Tests used:
[1] = tested on: platelet agregation induced by PAF; assay: Inhibition of platelet agregation induced by PAF; type: cell-based, New Zealand rabbits; details: Oryctolagus cuniculus, New Zealand rabbit platelets, agregometer at 57° C., Table I
Method: 1) Inhibition of platelet agregation induced by PAF
This experimentation was conducted according to the method of R. KINLOUGH. RATHBONE, J. P. CAZENAVE, M. PACKHAM and F. MUSTARD, Lab. Invest. 48, 98, 1980. In this test, New Zealand rabbits were used (male New Zealand rabbits of an average weight of 5 kg).
The determinations are made on a chrono-log Coultronics agregometer, at […] coupled with a graphic recorder; the results of these determinations (in molecular concentration) are reported on the table I on the central column.

[2] = tested on: bronchospasm induced by the PAF; assay: Action on the bronchospasm induced by the PAF in anaesthetized guinea-pigs; type: in vivo, guinea-pig; details: male Hartley guinea-pigs, oral, 1 hour before PAF i.v.; for Percentage of action: change versus controls; for Percentage of bronchoconstriction: controls 79. ± 5.55, dose not given
Source text: 3) Action on the bronchospasm induced by the PAF
The PAF intravenous injection in anaesthetized guinea-pigs induces a bronchoconstriction with a leucopeny and a thrombocytopeny, according to the method described in S. DESQUAND, C. TOUVAY, J. RANDON, V. LAGENTE, B. VILAIN, I. MARIDONNEAU-PARINI, A. ETIENNE, J. LEFORT, P. BRAQUET and B. VARGAFTIG. Interference of BN 52021 (Ginkolide B) with the bronchopulmonary effects of PAF-acether in the guinea-pig. Eur. J. Pharmacol. 127: 83-95, 1986.
Male Hartley guinea-pigs (400-450 g) (Charles River) anaesthetized with urethane (2 g/kg IP), then are thracheotomized and submitted to a forced respiration with a breathing pump:70-80 strokes/mn, 1 ml of air/ 100 g per stroke. A catheter is introduced in the jugular vein for the injections, an other is introduced in the carotic artery for blood takings. The initial resistance is kept constant under the pressure of 10 cm of water in accordance with the Konzett and Rossler method and the air in excess is measured with a transducor for bronchospasm UGO BASILE together with an enregistror GEMINI. The guinea-pigs had received an IV injection of pancuronium (Pavulon) to inhibit their spontaneous respiration.
The compound according to the invention and the reference compound WEB 2086 (see the above cited Boehringer patent) have been prepared as suspension in gummy water and administrated orally 1 hour before the stimulation by the PAF.
The bronchoconstriction is appreciated by the calculation of the percentage of bronchoconstriction [formula] wherein A stands for induced bronchoconstriction in mm and B stands for maximum bronchoconstriction in mm.

[3] = biological target: benzodiazepine receptors; assay: Inhibition of the binding to benzodiazepine receptors (rat brains); details: rat brains incubated 1 h 30 at 4° C.; 3H-RO-15-4788 and 3H-RO-5-4864 as tracers; Table I; read-out: BDZ receptors (inhibition of the binding to benzodiazepine receptors)
Source text: 2) Inhibition of the binding to benzodiazepine receptors
The interest of the previous experimentation depends on the results obtained in this experimentation: as a compound of the invention has a benzodiazepine like structure, it is important to check whether the specific benzodiazepine activity would not appear at the dose where platelet agregation was inhibited.
Therefore, this experimentation has been conducted according to the method of MOHLER H. and RICHARD J. G. Agonist and antagonist benzodiazepine receptor intereaction in vitro, Nature, vol. 294, 763°-765, 1981.
This experimentation was conducted on rat brains incubated 1 h 30 at 4° C. using ^3 H-RO-15-4788 and ^3 H-RO-5-4864 (NEN) as tracers and […] and RO-5-4864 as reference antagonists.
The results in molecular concentration are reported in the table I, on the right hand column.

[4] = Toxicity on the mice; details: mouse, in vivo, IP route

| SMILES | IC50 [1] [nM] | Percentage of action [2] [%] | Percentage of bronchoconstriction [2] [%] | IC50 [3] [nM] | LD50 [4] [mg/kg] |
| --- | --- | --- | --- | --- | --- |
| Cc1nnc2n1-c1sc3c(c1C(c1ccccc1Cl)=NC2)CCN(C(=S)NC(C)C)C3 [Example 1, 6-(2-chlorophenyl)-9-isopropylthiocarbamoyl-7,8,9,10-tetrahydro-1-methyl4H-pyrido[4',3':4,5]thieno[3,2-f]1,2,4-triazolo[4,3-a]1,4-diazepine] | 32.8 | -70.4 | 23.4 | 7000 |  |
| Cc1nnc2n1-c1sc3c(c1C(c1ccccc1Cl)=NC2)CCN(C(=O)NC(C)(C)C)C3 [Example 3, 6-(2-chlorophenyl)-9-tertbutylcarbamoyl-7,8,9,10-tetra-hydro-1-methyl4H-pyrido[4',3':4,5]thieno[3,2-f]1,2,4-triazolo [4,3-a]1,4-diazepine] | 17.1 | -63.7 | 28.7 | 430 |  |
| CCCCCCCCCCCCCCCCNC(=S)N1CCc2c(sc3c2C(c2ccccc2Cl)=NCc2nnc(C)n2-3)C1 [Example 5, 6-(2-chlorophenyl)-9-hexadecylthiocarbamoyl-7,8,9,10-tetrahydro-1-methyl4H-pyrido[4',3':4,5]thieno [3,2-f]1,2,4-triazolo [4,3-a]1,4-diazepine] | 297 | -61.6 | 30.3 | 63000 |  |
| COc1ccc(NC(=S)N2CCc3c(sc4c3C(c3ccccc3Cl)=NCc3nnc(C)n3-4)C2)cc1 [Example 7, 6-(2-chlorophenyl)-9-(4-methoxy)phenylthiocarbamoyl-7,8,9,10-tetrahydro-1-methyl4H-pyrido[4',3':4,5]thieno[3,2-f]1,2,4-triazolo[4,3-a]1,4-diazepine] | 301 | -83.5 | 13 ± 4.39 | 2000 |  |
| COc1cc(NC(=O)N2CCc3c(sc4c3C(c3ccccc3Cl)=NCc3nnc(C)n3-4)C2)cc(OC)c1OC [Example 8, 6-(2-chlorophenyl)-9-(3,4,5-trimethoxy)phenylcarbamoyl-7,8,9,10-tetrahydro-1-methyl 4H-pyrido[4',3':4,5]thieno [3,2-f]1,2,4-triazolo [4,3-a]1,4-diazepine] | 11.5 | -79.5 | 16.2 | 1500 |  |
| Cc1nnc2n1-c1sc3c(c1C(c1ccccc1Cl)=NC2)CCN(C(=O)Nc1ccc(C(C)(C)C)cc1)C3 [Example 10, 6-(2-chlorophenyl)-9-(4-tertbutyl)phenylcarbamoyl-7,8,9,10-tetrahydro-1-methyl 4H-pyrido[4',3':4,5]thieno [3,2-f]1,2,4-triazolo[4,3-a]1,4-diazepine] | 8.8 | -66.2 | 26.7 | 5250 | 400 to 1000 |
| Cc1nnc2n1-c1sc3c(c1C(c1ccccc1Cl)=NC2)CCN(C(=O)Nc1ccc(C(F)(F)F)cc1)C3 [Example 14, 6-(2-chlorophenyl)-9-(4-trifluoromethyl)phenylcarbamoyl-7,8,9,10-tetrahydro-1-methyl 4H-pyrido[4',3':4,5]thieno[3,2-f]1,2,4-triazolo[4,3-a]1,4-diazepine] | 150 | -38.5 | 48.6 | 70500 |  |
| Cc1nnc2n1-c1sc3c(c1C(c1ccccc1Cl)=NC2)CCN(C(=O)Nc1cccc(Cl)c1Cl)C3 [Example 17, 6-(2-chlorophenyl)-9-(2,3-dichloro)phenylcarbamoyl-7,8,9,10-tetrahydro-1-methyl 4H-pyrido[4',3':4,5]thieno[3,2-f]1,2,4-triazolo[4,3-a]1,4-diazepine] | 55 |  |  | 920 | 400 to 1000 |
| Cc1nnc2n1-c1sc3c(c1C(c1ccccc1Cl)=NC2)CCN(C(=O)Nc1ccc(Oc2ccccc2)cc1)C3 [Example 18, 6-(2-chlorophenyl)-9-(4-phenoxy)phenylcarbamoyl-7,8,9,10-tetrahydro-1-methyl 4H-pyrido[4',3':4,5]thieno[3,2-f]1,2,4-triazolo[4,3-a]1,4-diazepine] | 33 | -81.8 | 14.1 | 860 | 400 to 1000 |
| Cc1nnc2n1-c1sc3c(c1C(c1ccccc1Cl)=NC2)CCN(C(=S)Nc1ccc(C(C)(C)C)cc1C(C)(C)C)C3 [Example 22, 6-(2-chlorophenyl)-9-(2,4-diterbutyl)phenylthiocarbamoyl-7,8,9,10-tetrahydro-1-methyl-4H-pyrido[4',3':4,5]thieno[3,2-f]1,2,4-triazolo[4,3-a]1,4-diazepine] | 366 | -67.7 | 25.5 | 630 |  |
| Cc1nnc2n1-c1sc3c(c1C(c1ccccc1Cl)=NC2)CCN(C(=S)NCc1ccco1)C3 [Example 24, 6-(2-chlorophenyl)-9-(2-furfuryl)thiocarbamoyl-7,8,9,10-tetrahydro-1-methyl-4H-pyrido[4',3':4,5]thieno[3,2-f]1,2,4-triazolo[4,3-a]1,4-diazepine] | 48 | -57.9 | 33.3 | 650 |  |
| Cc1nnc2n1-c1sc3c(c1C(c1ccccc1Cl)=NC2)CCN(C(=S)NS(=O)(=O)c1ccccc1)C3 [Example 30, 6-(2-chlorophenyl)-9-(phenylsulfonyl)thiocarbamoyl-7,8,9,10-tetrahydro-1-methyl-4H-pyrido[4',3':4,5]thieno[3,2-f]1,2,4-triazolo[4,3-a]1,4-diazepine] | 11 | -52.9 | 37.2 | 630 |  |
| Cc1nnc2n1-c1sc3c(c1C(c1ccccc1Cl)=NC2)CCN(C(=S)NS(=O)(=O)c1ccc[nH]1)C3 [Example 33, 6-(2-chlorophenyl)-9-(2-pyrrolylsulfonyl)thiocarbamoyl7,8,9,10-tetrahydro-1-methyl-4H-pyrido[4',3':4,5]thieno[3,2-f]1,2,4-triazolo[4,3-a]1,4-diazepine] | 205 | -71.7 | 22.4 | 9100 | 400 to 1000 |
| Cc1nnc2n1-c1sc(CCC(=O)N3CCOCC3)cc1C(c1ccccc1Cl)=NC2 [WEB 2086, reference compound] |  | -68.0 | 25.3 |  |  |
